Assay results reported in patent US12195427B2, “MASP-2 inhibitors and methods of use” (priority 2018, dated 2025).

Target: MASP-2 CCP2-SP (Homo sapiens (Human), UniProt O00187)
Assay: MASP-2 co-crystallization, X-ray crystallography and structure analysis (H-bonds, van der Waals contacts);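 for Ligand-pharmacophore element distance, pharmacophore element C2: distance from averaged pharmacophore element to bound ligand; missing value means element absent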;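 for Ligand-pharmacophore element distance, pharmacophore element C3: distance from averaged pharmacophore element to bound ligand; missing value means element absent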;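 for Ligand-pharmacophore element distance, pharmacophore element C4: distance from averaged pharmacophore element to bound ligand; missing value means element absent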;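 for Ligand-pharmacophore element distance, pharmacophore element C5: distance from averaged pharmacophore element to bound ligand; missing value means element absent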
Set-up: van der Waals contact distance, MASP-2 HIS 483 atom CD2 / van der Waals contact distance, MASP-2 HIS 483 atom NE2 / van der Waals contact distance, SER 654 C to compound atom / van der Waals contact distance, SER 654 O to compound atom / van der Waals contact distance, TRP 655 C to compound atom / van der Waals contact distance, MASP-2 GLY 528 atom CA / van der Waals contact distance TRP 655 atom CZ3 / van der Waals contact distance TRP 655 atom N / van der Waals contact distance TRP 655 atom CE3 / van der Waals contact distance GLY 656 atom C / van der Waals contact distance GLY 656 atom CA / van der Waals contact distance GLY 656 atom O / van der Waals contact distance, MASP-2 TYR 607 atom CD1 / van der Waals contact distance, MASP-2 PRO 606 atom O / d(C3,CA1) / d(CA1,N1)2 / d(H4,O1) / d(H4,O2) / d(O1,O2) / d(CA1,O2) / d(CA6,O1) / d(CA6,O2) / d(CA1,C5) / d(O2,H3) / d(N2,C2) / d(CA5,N2) / d(N2,C4) / d(N2,C6) / d(N2,CA3) / d(N2,O3) / d(O4,H2): unit not given beside the values
Conditions: for Ligand-pharmacophore element distance, pharmacophore element C2 / Ligand-pharmacophore element distance, pharmacophore element C3 / Ligand-pharmacophore element distance, pharmacophore element C4 / Ligand-pharmacophore element distance, pharmacophore element C5 / Ligand-pharmacophore element distance, pharmacophore element C6 / Ligand-pharmacophore element distance, pharmacophore element C7 / Ligand-pharmacophore element distance, pharmacophore element CA1 / Ligand-pharmacophore element distance, pharmacophore element CA2 / Ligand-pharmacophore element distance, pharmacophore element CA3 / Ligand-pharmacophore element distance, pharmacophore element CA4 / Ligand-pharmacophore element distance, pharmacophore element CA5 / Ligand-pharmacophore element distance, pharmacophore element CA6: Table A4-1
Description: This example illustrates the preparation of recombinant MASP-2 protein, based on UniProt O00187, human mannan-binding lectin serine protease 2. Expression constructs for human MASP-2 CCP2-SP and CCP2-SP-6HIS were generated for recombinant expression in E. coli cells.
Typically, crystallization hits were obtained by screening against […] 96-well crystallization reagent kits (GRAS6, GRAS2, Hampton Research; MORPHEUS, Molecular Dimensions; Wizard 1&2 Cryo, Rigaku Reagents) and crystal growth was inspected by optical microscopy. Crystals were used directly or further optimized for X-ray diffraction. Crystals were captured with cryogenic loops and dipped into liquid nitrogen directly or cryoprotected with a 20% glycerol in crystallization formulation before flash-cooling in liquid nitrogen.
Thereafter crystals are transferred once or twice for soaking within the crystallization solution containing the MASP-2 inhibitor.
Crystals were diffracted with synchrotron X-rays of […] and X-ray diffraction datasets were collected at beamlines SSRL BL9-2, BL14-1, BL12-2 as well as ALS sector 5 using Dectris Pilatus and Eiger detectors. Structures were determined by molecular replacement using portions of the structure 1Q3X as search models and partially refined with Buster 2.10.2 or Refmac 5.8. […] When multiple ligand poses were observed, for instance arising from multiple molecules in the asymmetric unit or refined dual poses within the same molecule, only one pose was selected and analyzed.
LigPlot+ calls these ‘nonbonded contacts’ or ‘hydrophobic contacts’. Despite the name, there are atom pairings that include possible H-bonds. Thus, in some instances, the Table A2 also contains H-bond interactions.

[1] = Table A5-1 pharmacophore: distance between elements, S2/S1 region
[2] = Table A7-1, between pharmacophore elements of the bound compound
[3] = Table A8-6, nearest protein atom in cell to the left
[4] = Table A5-2 pharmacophore distance, S3/S4 region
[5] = Table A7-2, between pharmacophore elements of the bound compound

MASP-2 CCP2-SP, sequence (O00187 445-686): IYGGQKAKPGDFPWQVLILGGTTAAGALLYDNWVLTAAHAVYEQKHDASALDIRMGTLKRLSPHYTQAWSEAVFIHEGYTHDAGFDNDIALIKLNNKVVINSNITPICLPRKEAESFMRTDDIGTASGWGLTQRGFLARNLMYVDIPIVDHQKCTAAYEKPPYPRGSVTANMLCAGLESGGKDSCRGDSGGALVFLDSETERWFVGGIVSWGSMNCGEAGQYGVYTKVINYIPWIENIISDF
MASP-2 CCP2-SP, sequence (O00187 364-432 partner): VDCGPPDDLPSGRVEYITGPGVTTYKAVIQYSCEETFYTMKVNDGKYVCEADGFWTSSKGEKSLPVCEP

O=c1oc(-c2ccccc2[N+](=O)[O-])nc2ccccc12 [compound 14]
H-bond distance to MASP-2 ALA 469 atom N (Table A1 (H-Bonds), ALA 469 N): 3
H-bond distance to MASP-2 HIS 483 atom NE2 (Table A1 (H-Bonds), HIS 483 NE2): 2.89
van der Waals contact distance, MASP-2 ALA 468 atom C (Table A2-1): 3.69
van der Waals contact distance, MASP-2 ALA 468 atom CA (Table A2-1): 3.52
van der Waals contact distance, MASP-2 ALA 468 atom CB (Table A2-1): 3.52
van der Waals contact distance, MASP-2 ALA 469 atom CA (Table A2-1): 3.89
van der Waals contact distance, MASP-2 HIS 483 atom CD2 (Table A2-1): 3.72
van der Waals contact distance, MASP-2 PHE 529 atom CE1 (Table A2-3): 3.21
van der Waals contact distance, MASP-2 amino acid atom to compound atom (Table A2-7: SER 628 (CB, O, OG)): 3.65
van der Waals contact distance, VAL 653 CB to compound atom (Table A2-11): 3.77
van der Waals contact distance, TRP 655 C to compound atom (Table A2-12): 3.72
van der Waals contact distance, TRP 655 CA to compound atom (Table A2-12): 3.69
van der Waals contact distance, MASP-2 amino acid atom to compound atom (Table A2 section before Table A2-8): 3.89
Ligand-pharmacophore element distance, pharmacophore element C2: 0
Ligand-pharmacophore element distance, pharmacophore element C3: 0
Ligand-pharmacophore element distance, pharmacophore element C4: 0
Ligand-pharmacophore element distance, pharmacophore element C5: 0
Ligand-pharmacophore element distance, pharmacophore element C6: 0
Ligand-pharmacophore element distance, pharmacophore element C7: 0
Ligand-pharmacophore element distance, pharmacophore element CA1: 1.47
Ligand-pharmacophore element distance, pharmacophore element CA2: 0
Ligand-pharmacophore element distance, pharmacophore element CA3: 0
Ligand-pharmacophore element distance, pharmacophore element CA4: 0
Ligand-pharmacophore element distance, pharmacophore element CA5: 0
Ligand-pharmacophore element distance, pharmacophore element CA6: 1.68
Ligand-pharmacophore element distance, pharmacophore element H1 (Table A4-2, element H1): 0
Ligand-pharmacophore element distance, pharmacophore element H2 (Table A4-2, element H2): 4.66
Ligand-pharmacophore element distance, pharmacophore element H3 (Table A4-2, element H3): 0
Ligand-pharmacophore element distance, pharmacophore element H4 (Table A4-2, element H4): 1.82
Ligand-pharmacophore element distance, pharmacophore element N1 (Table A4-2, element N1): 0
Ligand-pharmacophore element distance, pharmacophore element N2 (Table A4-2, element N2): 0
Ligand-pharmacophore element distance, pharmacophore element O1 (Table A4-2, element O1): 3.89
Ligand-pharmacophore element distance, pharmacophore element O2 (Table A4-2, element O2): 0.46
Ligand-pharmacophore element distance, pharmacophore element O3 (Table A4-2, element O3): 0
Ligand-pharmacophore element distance, pharmacophore element O4 (Table A4-2, element O4): 0
d(CA1,O1) [1]: 3.49
d(CA1,O2) [1]: 3.51
d(CA6,O1) [1]: 7.02
d(CA6,O2) [1]: 3.51
d(H4,O1) [1]: 3.02
d(H4,O2) [1]: 3.13
d(O1,O2) [1]: 5.28
a(CA1, O1, O2) (Table A6-1 pharmacophore angle): 139.05
a(O1, CA6, O2) (Table A6-1 pharmacophore angle): 75.74
a(O1, O2, H4) (Table A6-1 pharmacophore angle): 61.95
Pharmacophore torsion angle a(CA6, O1, H4, O2) [2]: 43.29
Pharmacophore torsion angle a(O1, H4, O2, CA1) [2]: 38.29
Pharmacophore protein distance to MET_658 (first MET_658 column) (Table A8-6, 6th residue column, nearest protein atom in cell to the left): 2.13
Pharmacophore protein distance to MET_658 (second MET_658 column) (Table A8-6, 9th residue column, nearest protein atom in cell to the left): 3.80
Pharmacophore protein distance to GLY_528 [3]: 3.51
Pharmacophore protein distance to PHE_529 [3]: 2.77
Pharmacophore protein distance to PRO_608 [3]: 4.32
Pharmacophore protein distance to SER_611 [3]: 2.64
Pharmacophore protein distance to TRP_655 (Table A8-6, pharmacophore elements C6, CA3, O3, H1, nearest protein atom in cell to the left): 3.76

Cc1nc(N)ccc1CNC(=O)C(C)NC(=O)C1CC(c2cccc3ccccc23)CCN1.Cl.Cl (stereo not drawn) [1297_6]
Ligand-pharmacophore element distance, pharmacophore element C2: 0.33
Ligand-pharmacophore element distance, pharmacophore element C3: 0.4
Ligand-pharmacophore element distance, pharmacophore element C4: 0
Ligand-pharmacophore element distance, pharmacophore element C5: 0
Ligand-pharmacophore element distance, pharmacophore element C6: 0
Ligand-pharmacophore element distance, pharmacophore element C7: 0
Ligand-pharmacophore element distance, pharmacophore element CA1: 0.36
Ligand-pharmacophore element distance, pharmacophore element CA2: 0.24
Ligand-pharmacophore element distance, pharmacophore element CA3: 0
Ligand-pharmacophore element distance, pharmacophore element CA4: 1.14
Ligand-pharmacophore element distance, pharmacophore element CA5: 0
Ligand-pharmacophore element distance, pharmacophore element CA6: 0
d(C3,CA1) [1]: 2.86
d(CA1,N1)2 [1]: 1.38
d(CA1,O1) [1]: 4.73
d(CA1,O2) [1]: 4.23
d(H4,O1) [1]: 4.65
d(H4,O2) [1]: 4.26
d(O1,O2) [1]: 3.53
d(N2,C2) [4]: 1.44
d(N2,CA2) [4]: 5.72
d(O2,H3) [4]: 4.15
d(O2,N2) [4]: 2.83
a(C3, CA1, O1) (Table A6-1 pharmacophore angle): 150.35
a(CA1, O1, O2) (Table A6-1 pharmacophore angle): 105.49
a(O1, O2, H4) (Table A6-1 pharmacophore angle): 133.61
a(N1, CA1, O1) b) (Table A6-1 pharmacophore angle, Methyl-amino-pyridine compounds): 173.49
a(O1, O2, H3) (Table A6-2 pharmacophore angle): 144.79
a(O1, O2, N2) (Table A6-2 pharmacophore angle): 141.32
a(O2, N2, C2) (Table A6-2 pharmacophore angle): 116.76
a(O2, N2, CA2) (Table A6-2 pharmacophore angle): 154.05
Pharmacophore torsion angle a(C3, CA1, O1, H4) [2]: 27.46
Pharmacophore torsion angle a(H4, O1, O2, H3) [2]: 43.22
Pharmacophore torsion angle a(H4, O1, O2, N2) [2]: 150.19
Pharmacophore torsion angle a(N1, CA1, O1, H4) [2]: 5.20
Pharmacophore torsion angle a(O1, H4, O2, CA1) [2]: −89.84
Pharmacophore torsion angle a(O1, O2, N2, C2) [2]: 132.97
Pharmacophore torsion angle a(O1, O2, N2, CA2) [5]: 131.04
Pharmacophore torsion angle a(O1, O2, N2, CA4) [5]: 109.63
